Data as given in patent US6291231A, “Microorganism producing terphenyl compounds” (Shionogi & Co., Ltd., priority 1996, dated 2001).
Values after ≈ are worked out from the molar mass of the structure shown.

Key:
[1] = test system: BDF1 mouse splenocytes; experiment: Suppression of the concanavalin A (Con A) mitogen reaction of mouse splenocytes, 3H-thymidine uptake; type: cell-based; set-up: Radioactivity cpm ± SD: dose or concentration left out as unconfirmed; conditions: for inhibition at 0.25 µg/mL: Mus musculus, Splenocyte, 48 h, Con A 5 μg/ml, compound 250.0 ng/ml
[2] = test system: BDF1 mouse splenocytes; experiment: Suppression of the lipopolysaccharide (LPS) reaction of mouse splenocytes, 3H-thymidine uptake; type: cell-based; conditions: for Radioactivity cpm ± SD / inhibition at 0.00098 µg/mL / inhibition at 0.00391 µg/mL / inhibition at 0.0156 µg/mL / inhibition at 0.0625 µg/mL / inhibition at 0.25 µg/mL: LPS 10 μg/ml; for Radioactivity cpm ± SD: 3H-thymidine; for inhibition at 0.00098 µg/mL / inhibition at 0.00391 µg/mL / inhibition at 0.0156 µg/mL / inhibition at 0.0625 µg/mL / inhibition at 0.25 µg/mL: Mus musculus, 48 h; for inhibition at 0.00098 µg/mL / inhibition at 0.00391 µg/mL / inhibition at 0.0156 µg/mL / inhibition at 0.0625 µg/mL / inhibition at 0.25 µg/mL / IC50: Splenocyte; for IC50: LPS reaction of mouse splenocytes; for Suppressive effect on the LPS reaction of mouse splenocytes (in words): depends on the compound concentration
Method: To each well of a 96 well microtiter plate were added 5×10^5 BDF1 mouse splenocytes suspended in 0.1 ml of 10% fetal calf serum-fortifed RPMI 1640 medium (2 mM of sodium bicarbonate, 50 units/ml of penicillin, 50 μg/ml of streptomycin and 5×10^-5 M of 2-mercaptethanol were added) were added. To each well, 5 μg/ml of Con A as a mitogen and the compound (I-1), (I-2) or (I-3) of a pre-determined concentration were added so that a final volume of each well reached 0.2 ml. […] The splenocytes in the 96 well microtiter plate were cultivated at 37° C. for 48 hours in an incubator keeping the humidity 100%, carbon dioxide 5% and air 95%. The cells were pulse-labeledwith 3H-thymidine (18.5 Kbq/well) before 6 hours of harvest. After the cultivation, the cells were collected by a cell harvester and radioactivity taken in the cells was measured for being used as an indicator of a cell proliferation activity. Con A-free (--Con A) medium was used as a control.
By the same method as described in above 1-1 except that lipopolysaccharide (LPS, 10 μg/ml) was used in spite of concanavalin A, a suppression of the reaction was examined. LPS-free (--LPS) medium was used as a control.

[3] = Solubility (characterisation data); type: physicochemical
[4] = test system: BDF1 mouse splenocytes; experiment: Suppression of the concanavalin A (Con A) mitogen reaction of mouse splenocytes, 3H-thymidine uptake; type: cell-based; conditions: for Radioactivity cpm ± SD / inhibition at 0.00025 µg/mL / inhibition at 0.00098 µg/mL / inhibition at 0.00391 µg/mL / inhibition at 0.0156 µg/mL / inhibition at 0.0625 µg/mL: Con A 5 μg/ml, 48 h; for Radioactivity cpm ± SD: 3H-thymidine; for inhibition at 0.00025 µg/mL / inhibition at 0.00098 µg/mL / inhibition at 0.00391 µg/mL / inhibition at 0.0156 µg/mL / inhibition at 0.0625 µg/mL: Mus musculus; for inhibition at 0.00025 µg/mL / inhibition at 0.00098 µg/mL / inhibition at 0.00391 µg/mL / inhibition at 0.0156 µg/mL / inhibition at 0.0625 µg/mL / IC50: Splenocyte; for IC50: Con A reaction of mouse splenocytes; for Suppression of the Con A reaction of mouse splenocytes (in words): depending on the compound concentration
Method: To each well of a 96 well microtiter plate were added 5×10^5 BDF1 mouse splenocytes suspended in 0.1 ml of 10% fetal calf serum-fortifed RPMI 1640 medium (2 mM of sodium bicarbonate, 50 units/ml of penicillin, 50 μg/ml of streptomycin and 5×10^-5 M of 2-mercaptethanol were added) were added. To each well, 5 μg/ml of Con A as a mitogen and the compound (I-1), (I-2) or (I-3) of a pre-determined concentration were added so that a final volume of each well reached 0.2 ml. Each compound of the present invention was dissolved in dimethylsulfoxide (DMSO) and diluted with the above RPMI 1640 medium to adjust the final concentration to 100 ng/ml or less. The splenocytes in the 96 well microtiter plate were cultivated at 37° C. for 48 hours in an incubator keeping the humidity 100%, carbon dioxide 5% and air 95%. The cells were pulse-labeledwith 3H-thymidine (18.5 Kbq/well) before 6 hours of harvest. After the cultivation, the cells were collected by a cell harvester and radioactivity taken in the cells was measured for being used as an indicator of a cell proliferation activity. Con A-free (--Con A) medium was used as a control.

Structure (SMILES) | Radioactivity cpm ± SD [1] | inhibition at 0.25 µg/mL [1] | Radioactivity cpm ± SD ([2]; compound 0.98 ng/ml) | Radioactivity cpm ± SD ([2]; compound 3.91 ng/ml) | Radioactivity cpm ± SD ([2]; compound 15.6 ng/ml) | Radioactivity cpm ± SD ([2]; compound 62.5 ng/ml) | Radioactivity cpm ± SD ([2]; compound 250.0 ng/ml) | inhibition at 0.00098 µg/mL ([2]; compound 0.98 ng/ml) | inhibition at 0.00391 µg/mL ([2]; compound 3.91 ng/ml) | inhibition at 0.0156 µg/mL ([2]; compound 15.6 ng/ml) | inhibition at 0.0625 µg/mL ([2]; compound 62.5 ng/ml) | inhibition at 0.25 µg/mL ([2]; compound 250.0 ng/ml) | IC50 [2] | Suppressive effect on the LPS reaction of mouse splenocytes (in words) [2] | Solubility in acetone, ethyl acetate and chloroform [3] | Solubility in water [3] | Radioactivity cpm ± SD ([4]; compound 0.25 ng/ml) | Radioactivity cpm ± SD ([4]; compound 0.98 ng/ml) | Radioactivity cpm ± SD ([4]; compound 3.91 ng/ml) | Radioactivity cpm ± SD ([4]; compound 15.6 ng/ml) | other results
COc1cc(-c2c(OC)cc(-c3ccc(O)cc3)c(OC)c2O)ccc1OCC=C(C)C [Compound I-3, 3,3',6'-trimethoxy-4-(3-methyl-2-butenyloxy)-[1,1';4',1"] terphenyl-2',4"-diol] | 7522 ± 485 cpm | 98.5% | 184366 ± 10625 cpm | 128436 ± 4167 cpm | 46765 ± 2209 cpm | 22961 ± 1187 cpm | 14962 ± 866 cpm | -20.2% | 16.8% | 71% | 86.7% | 92% | 8 ng/mL (≈ 0.0183 µM) | potent suppressive effect | soluble | insoluble | 285408 ± 7252 cpm | 266173 ± 6208 cpm | 101504 ± 1326 cpm | 20510 ± 287 cpm | Radioactivity cpm ± SD ([4]; compound 62.5 ng/ml): 7755 ± 624 cpm; inhibition at 0.00025 µg/mL ([4]; compound 0.25 ng/ml): -3.1%; inhibition at 0.00098 µg/mL ([4]; compound 0.98 ng/ml): 4%; inhibition at 0.00391 µg/mL ([4]; compound 3.91 ng/ml): 64.2%; inhibition at 0.0156 µg/mL ([4]; compound 15.6 ng/ml): 93.8%; inhibition at 0.0625 µg/mL ([4]; compound 62.5 ng/ml): 98.4%; IC50 [4]: 2 ng/mL (≈ 0.00458 µM); Suppression of the Con A reaction of mouse splenocytes (in words) [4]: significantly suppressed
COc1cc(-c2ccccc2)c(OC)c(O)c1-c1ccc(OCC=C(C)C)c(O)c1 [Compound I-2, 3',6'-dimethoxy-4-(3-methyl-2-butenyloxy)-[1,1';4',1"] terphenyl-3,2'-diol] | 8233 ± 254 cpm | 98.2% | 208023 ± 8941 cpm | 132834 ± 5106 cpm | 78686 ± 4135 cpm | 39824 ± 651 cpm | 22312 ± 1122 cpm | -35.9% | 13.9% | 49.8% | 75.6% | 87.2% | 15.6 ng/mL (≈ 0.0384 µM) | potent suppressive effect | soluble | insoluble | 281904 ± 6522 cpm | 281371 ± 10119 cpm | 191575 ± 6969 cpm | 41660 ± 531 cpm | Radioactivity cpm ± SD ([4]; compound 62.5 ng/ml): 11793 ± 235 cpm; inhibition at 0.00025 µg/mL ([4]; compound 0.25 ng/ml): -1.8%; inhibition at 0.00098 µg/mL ([4]; compound 0.98 ng/ml): -1.6%; inhibition at 0.00391 µg/mL ([4]; compound 3.91 ng/ml): 30.9%; inhibition at 0.0156 µg/mL ([4]; compound 15.6 ng/ml): 86%; inhibition at 0.0625 µg/mL ([4]; compound 62.5 ng/ml): 96.9%; IC50 [4]: 5.6 ng/mL (≈ 0.0138 µM); Suppression of the Con A reaction of mouse splenocytes (in words) [4]: significantly suppressed
